According to PubChem BioAssay (NCI):
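Cultured in 96-well plates, cells were exposed to test compound for 48 hours across five concentrations. TGI is the concentration that stops growth completely.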

Columns and labels:
Assay in all cases: inhibition of tumour cell growth, NCI panel, 48 h
786-0 renal = test system: 786-0 renal
A498 renal = test system: A498 renal
A549 NSCLC = test system: A549 NSCLC
ACHN renal = test system: ACHN renal
BT-549 breast = test system: BT-549 breast
CAKI-1 renal = test system: CAKI-1 renal
CCRF-CEM leukemia = test system: CCRF-CEM leukemia
COLO 205 colon = test system: COLO 205 colon
DU-145 prostate = test system: DU-145 prostate
EKVX NSCLC = test system: EKVX NSCLC
HCT-116 colon = test system: HCT-116 colon
HCT-15 colon = test system: HCT-15 colon
HL-60(TB) leukemia = test system: HL-60(TB) leukemia
HOP-62 NSCLC = test system: HOP-62 NSCLC
HOP-92 NSCLC = test system: HOP-92 NSCLC
HS 578T breast = test system: HS 578T breast
HT29 colon = test system: HT29 colon
IGROV1 ovarian = test system: IGROV1 ovarian
KM12 colon = test system: KM12 colon
LOX IMVI melanoma = test system: LOX IMVI melanoma
M14 melanoma = test system: M14 melanoma
MALME-3M melanoma = test system: MALME-3M melanoma
MCF7 breast = test system: MCF7 breast
MDA-MB-231 breast = test system: MDA-MB-231 breast
MDA-MB-435 = test system: MDA-MB-435
MDA-N = test system: MDA-N
MOLT-4 leukemia = test system: MOLT-4 leukemia
NCI-H23 lung = test system: NCI-H23 lung
NCI-H460 lung = test system: NCI-H460 lung
NCI-H522 lung = test system: NCI-H522 lung
NCI/ADR-RES ovarian = test system: NCI/ADR-RES ovarian
OVCAR-3 ovarian = test system: OVCAR-3 ovarian
OVCAR-4 ovarian = test system: OVCAR-4 ovarian
OVCAR-5 ovarian = test system: OVCAR-5 ovarian
OVCAR-8 ovarian = test system: OVCAR-8 ovarian
PC-3 prostate = test system: PC-3 prostate
RPMI-8226 leukemia = test system: RPMI-8226 leukemia
RXF 393 renal = test system: RXF 393 renal
SF-268 CNS = test system: SF-268 CNS
SF-295 CNS = test system: SF-295 CNS
SF-539 CNS = test system: SF-539 CNS
SK-MEL-2 melanoma = test system: SK-MEL-2 melanoma
SK-MEL-28 melanoma = test system: SK-MEL-28 melanoma
SK-MEL-5 melanoma = test system: SK-MEL-5 melanoma
SK-OV-3 ovarian = test system: SK-OV-3 ovarian
SN12C renal = test system: SN12C renal
SNB-19 CNS = test system: SNB-19 CNS
SW-620 colon = test system: SW-620 colon
T-47D breast = test system: T-47D breast
TK-10 renal = test system: TK-10 renal
U251 CNS = test system: U251 CNS
UACC-257 melanoma = test system: UACC-257 melanoma
UACC-62 melanoma = test system: UACC-62 melanoma
HCC-2998 colon = test system: HCC-2998 colon
K-562 leukemia = test system: K-562 leukemia
SNB-75 CNS = test system: SNB-75 CNS
UO-31 renal = test system: UO-31 renal

Measured: TGI

CC(C)(C)OC(=O)N1C(=O)OC[C@@H]2C=C[C@@H]21
not listed: HCC-2998 colon | K-562 leukemia | SNB-75 CNS | UO-31 renal
> 100 µM: all other assays above

CO/N=C/c1c(-c2ccc(Cl)cc2)c(/C=N/OC)n2c1sc1ccccc12
not listed: A498 renal | M14 melanoma | RPMI-8226 leukemia | SF-539 CNS
> 100 µM: all other assays above
